The values below come from the supplement of paper PMC12137928.

For the experiment, the system named is HCT116. The following applies: 72 h. The method, boiled down: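 Four-parameter Hill fits gave IC50 and maximal efficacy. The data were CellTiter-Glo luminescence readings in HCT116 cells, normalized so that vehicle was 0% and positive control was -100%, with pattern correction afterwards.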

Counter-ions that a name gives are not always drawn.

Turning to `Cc1[nH]cnc1CN1CCc2c(c3ccccc3n2C)C1=O` [Alosetron hydrochloride], the IC50 cell viability (ICRF193 0 nM) was > 45.8 µM and the IC50 cell viability (ICRF193 200 nM) was > 45.8 µM.
In the case of `C=CCc1ccccc1OCC(O)CNC(C)C` (stereo unspecified) [Alprenolol], the IC50 cell viability (ICRF193 0 nM) is > 45.8 µM and the IC50 cell viability (ICRF193 200 nM) is > 45.8 µM.
Regarding `C=CC[C@]1(O)CC[C@H]2[C@@H]3CCC4=CC(=O)CCC4=C3C=C[C@@]21C` [Altrenogest], the IC50 cell viability (ICRF193 0 nM) was > 45.8 µM and the IC50 cell viability (ICRF193 200 nM) is > 45.8 µM.
Turning to `CN(C)c1nc(N(C)C)nc(N(C)C)n1` [Altretamine], the IC50 cell viability is, setting by setting: (ICRF193 0 nM) > 45.8 µM; (ICRF193 200 nM) > 45.8 µM.
Regarding `CCN(CCCc1ccccc1)CCCc1ccccc1` [Alverine citrate], the IC50 cell viability was > 45.8 µM (ICRF193 0 nM) and > 45.8 µM (ICRF193 200 nM).
As for `C[C@H]1CN(C[C@H](Cc2ccccc2)C(=O)NCC(=O)O)CC[C@@]1(C)c1cccc(O)c1` [Alvimopan], the IC50 cell viability is, setting by setting: (ICRF193 0 nM) > 45.8 µM; (ICRF193 200 nM) > 45.8 µM.
Turning to `NC12CC3CC(CC(C3)C1)C2` [Amantadine hydrochloride], the IC50 cell viability by setting is: (ICRF193 0 nM) > 45.8 µM; (ICRF193 200 nM) > 45.8 µM.
With `CC[N+](CC)(CCNC(=O)C(=O)NCC[N+](CC)(CC)Cc1ccccc1Cl)Cc1ccccc1Cl` [Ambenonium chloride], the IC50 cell viability reads like this: (ICRF193 0 nM) > 45.8 µM; (ICRF193 200 nM) > 45.8 µM.
For the molecule `COC(c1ccccc1)(c1ccccc1)[C@H](Oc1nc(C)cc(C)n1)C(=O)O` [Ambrisentan], the IC50 cell viability is > 45.8 µM (ICRF193 0 nM) and > 45.8 µM (ICRF193 200 nM).
In the case of `Nc1c(Br)cc(Br)cc1CN[C@H]1CC[C@H](O)CC1` [Ambroxol hydrochloride], the IC50 cell viability reads like this: (ICRF193 0 nM) > 45.8 µM; (ICRF193 200 nM) > 45.8 µM.
On to `CC1(C)S[C@@H]2[C@H](/N=C/N3CCCCCC3)C(=O)N2[C@H]1C(=O)O` [Amdinocillin], for which the IC50 cell viability by setting is: (ICRF193 0 nM) > 45.8 µM; (ICRF193 200 nM) > 45.8 µM.
In the case of `CCC(=O)O[C@]1(C(=O)COC)[C@@H](C)C[C@H]2[C@@H]3CCC4=CC(=O)C=C[C@]4(C)[C@@]3(F)[C@@H](O)C[C@@]21C` [Amelometasone], the IC50 cell viability runs as follows: (ICRF193 0 nM) > 45.8 µM; (ICRF193 200 nM) > 45.8 µM.
With `COc1cc(N)cn[n+]1-c1ccccc1` [Amezinium methylsulfate], the IC50 cell viability runs as follows: (ICRF193 0 nM) > 45.8 µM; (ICRF193 200 nM) > 45.8 µM.
`Nc1c(CC(=O)O)cccc1C(=O)c1ccccc1` [Amfenac Sodium]: the IC50 cell viability is > 45.8 µM (ICRF193 0 nM) and > 45.8 µM (ICRF193 200 nM).
For the molecule `COC(=O)c1cc(Cl)ccc1NS(=O)(=O)C(F)(F)F` [Amidoflumet], the IC50 cell viability (ICRF193 0 nM) was > 45.8 µM and the IC50 cell viability (ICRF193 200 nM) was > 45.8 µM.
Take `NCCCNCCSP(=O)(O)O` [Amifostine]: the IC50 cell viability (ICRF193 0 nM) was > 45.8 µM and the IC50 cell viability (ICRF193 200 nM) was > 45.8 µM.
As for `NCC[C@H](O)C(=O)N[C@@H]1C[C@H](N)[C@@H](O[C@H]2O[C@H](CN)[C@@H](O)[C@H](O)[C@H]2O)[C@H](O)[C@H]1O[C@H]1O[C@H](CO)[C@@H](O)[C@H](N)[C@H]1O` [Amikacin], the IC50 cell viability is > 45.8 µM (ICRF193 0 nM) and > 45.8 µM (ICRF193 200 nM).
For the molecule `N=C(N)NC(=O)c1nc(Cl)c(N)nc1N` [Amiloride], the IC50 cell viability (ICRF193 0 nM) was > 45.8 µM and the IC50 cell viability (ICRF193 200 nM) is > 45.8 µM.
Consider `COc1ccc(/C=C/C(=O)OCCC(C)C)cc1` [Amiloxate], for which the IC50 cell viability reads like this: (ICRF193 0 nM) > 45.8 µM; (ICRF193 200 nM) > 45.8 µM.
In the case of `NCCCCCC(=O)O` [Aminocaproic acid], the IC50 cell viability is, setting by setting: (ICRF193 0 nM) > 45.8 µM; (ICRF193 200 nM) > 45.8 µM.
Consider `CCC1(c2ccc(N)cc2)CCC(=O)NC1=O` (stereo unspecified) [Aminoglutethimide], for which the IC50 cell viability is, setting by setting: (ICRF193 0 nM) > 45.8 µM; (ICRF193 200 nM) > 45.8 µM.
`Nc1ccc(C(=O)NCC(=O)O)cc1` [Aminohippuric acid]: the IC50 cell viability was > 45.8 µM (ICRF193 0 nM) and > 45.8 µM (ICRF193 200 nM).
On to `NCC(=O)CCC(=O)O` [Aminolevulinic acid hydrochloride], for which the IC50 cell viability (ICRF193 0 nM) is > 45.8 µM and the IC50 cell viability (ICRF193 200 nM) is > 45.8 µM.
Take `CC(CC(C(N)=O)(c1ccccc1)c1ccccc1)N(C)C` (stereo unspecified) [Aminopentamide sulfate]: the IC50 cell viability is, setting by setting: (ICRF193 0 nM) > 45.8 µM; (ICRF193 200 nM) > 45.8 µM.
In the case of `CCN1CCCC1CNC(=O)c1cc(S(=O)(=O)CC)c(N)cc1OC` (stereo unspecified) [Amisulpride], the IC50 cell viability (ICRF193 0 nM) was > 45.8 µM and the IC50 cell viability (ICRF193 200 nM) is > 45.8 µM.
Turning to `Cc1ccc(/N=C/N(C)/C=N/c2ccc(C)cc2C)c(C)c1` [Amitraz], the IC50 cell viability (ICRF193 0 nM) is > 45.8 µM and the IC50 cell viability (ICRF193 200 nM) was > 45.8 µM.
In the case of `CC(C)c1ccc2oc3nc(N)c(C(=O)O)cc3c(=O)c2c1` [Amlexanox], the IC50 cell viability is, setting by setting: (ICRF193 0 nM) > 45.8 µM; (ICRF193 200 nM) > 45.8 µM.
With `CC1(C)[C@@H](O[C@H]2O[C@H](C(=O)O)[C@@H](O)[C@H](O)[C@H]2O[C@@H]2O[C@H](C(=O)O)[C@@H](O)[C@H](O)[C@H]2O)CC[C@]2(C)[C@H]3C(=O)C=C4[C@@H]5C[C@@](C)(C(=O)O)CC[C@]5(C)CC[C@@]4(C)[C@]3(C)CC[C@@H]12` [Ammonium Glycyrrhizinate], the IC50 cell viability runs as follows: (ICRF193 0 nM) > 45.8 µM; (ICRF193 200 nM) > 45.8 µM.
`CCC(C)(C)OC(=O)N[C@@H](Cc1c[nH]c2ccccc12)C(=O)N[C@@H](CCSC)C(=O)N[C@@H](CC(=O)O)C(=O)N[C@@H](Cc1ccccc1)C(N)=O` [Amogastrin]: the IC50 cell viability by setting is: (ICRF193 0 nM) > 45.8 µM; (ICRF193 200 nM) > 45.8 µM.
`CCC(C)(C)c1ccc(CC(C)CN2C[C@@H](C)O[C@@H](C)C2)cc1` (stereo partly specified) [Amorolfine hydrochloride]: the IC50 cell viability is, setting by setting: (ICRF193 0 nM) > 45.8 µM; (ICRF193 200 nM) > 45.8 µM.
`Clc1ccc2c(c1)C(N1CCNCC1)=Nc1ccccc1O2` [Amoxapine]: the IC50 cell viability is > 45.8 µM (ICRF193 0 nM) and > 45.8 µM (ICRF193 200 nM).
For the molecule `CC1(C)S[C@@H]2[C@H](NC(=O)[C@H](N)c3ccc(O)cc3)C(=O)N2[C@H]1C(=O)O` [Amoxicillin sodium], the IC50 cell viability is > 45.8 µM (ICRF193 0 nM) and > 45.8 µM (ICRF193 200 nM).
For `C[C@@H]1[C@H](O)[C@@H](C)/C=C/C=C/C=C/C=C/C=C/C=C/C=C/[C@H](O[C@@H]2O[C@H](C)[C@@H](O)[C@H](N)[C@@H]2O)C[C@@H]2O[C@](O)(C[C@@H](O)C[C@@H](O)[C@H](O)CC[C@@H](O)C[C@@H](O)CC(=O)O[C@H]1C)C[C@H](O)[C@H]2C(=O)O` [Amphotericin B], the IC50 cell viability reads like this: (ICRF193 0 nM) > 45.8 µM; (ICRF193 200 nM) > 45.8 µM.
Regarding `CCOC(=O)OC(C)OC1=C(C(=O)Nc2ccccn2)N(C)S(=O)(=O)c2ccccc21` (stereo unspecified) [Ampiroxicam], the IC50 cell viability by setting is: (ICRF193 0 nM) > 45.8 µM; (ICRF193 200 nM) > 45.8 µM.
In the case of `CC(C)CN(C[C@@H](O)[C@H](Cc1ccccc1)NC(=O)O[C@H]1CCOC1)S(=O)(=O)c1ccc(N)cc1` [Amprenavir], the IC50 cell viability is > 45.8 µM (ICRF193 0 nM) and > 45.8 µM (ICRF193 200 nM).
As for `CCCc1ncc(C[n+]2ccccc2C)c(N)n1` [Amprolium hydrochloride], the IC50 cell viability runs as follows: (ICRF193 0 nM) > 45.8 µM; (ICRF193 200 nM) > 45.8 µM.
As for `Nc1cc(-c2ccncc2)c[nH]c1=O` [Amrinone], the IC50 cell viability was > 45.8 µM (ICRF193 0 nM) and > 45.8 µM (ICRF193 200 nM).
Take `CCCCCc1ccc(C)cc1O` [Amylmetacresol]: the IC50 cell viability runs as follows: (ICRF193 0 nM) > 45.8 µM; (ICRF193 200 nM) > 45.8 µM.
